PubChem BioAssay (NCI)
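A five-concentration, 48-hour dose response in 96-well plates underlies each endpoint, interpolated linearly between surrounding concentrations. GI50 marks 50% less growth. Definition used: TGI = concentration required for complete inhibition of growth.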

Assays:
Test in all cases: DTP human tumour cell line panel, 48 h
[1] = tested on: 786-0 renal
[2] = tested on: A498 renal
[3] = tested on: A549 NSCLC
[4] = tested on: ACHN renal
[5] = tested on: BT-549 breast
[6] = tested on: CAKI-1 renal
[7] = tested on: CCRF-CEM leukemia
[8] = tested on: COLO 205 colon
[9] = tested on: DU-145 prostate
[10] = tested on: EKVX NSCLC
[11] = tested on: HCC-2998 colon
[12] = tested on: HCT-116 colon
[13] = tested on: HCT-15 colon
[14] = tested on: HL-60(TB) leukemia
[15] = tested on: HOP-62 NSCLC
[16] = tested on: HOP-92 NSCLC
[17] = tested on: HS 578T breast
[18] = tested on: HT29 colon
[19] = tested on: IGROV1 ovarian
[20] = tested on: K-562 leukemia
[21] = tested on: KM12 colon
[22] = tested on: LOX IMVI melanoma
[23] = tested on: M14 melanoma
[24] = tested on: MALME-3M melanoma
[25] = tested on: MDA-MB-231 breast
[26] = tested on: MDA-MB-435
[27] = tested on: NCI-H226 lung
[28] = tested on: NCI-H23 lung
[29] = tested on: NCI-H522 lung
[30] = tested on: NCI/ADR-RES ovarian
[31] = tested on: OVCAR-3 ovarian
[32] = tested on: OVCAR-4 ovarian
[33] = tested on: OVCAR-5 ovarian
[34] = tested on: OVCAR-8 ovarian
[35] = tested on: PC-3 prostate
[36] = tested on: RPMI-8226 leukemia
[37] = tested on: RXF 393 renal
[38] = tested on: SF-295 CNS
[39] = tested on: SF-539 CNS
[40] = tested on: SK-MEL-2 melanoma
[41] = tested on: SK-MEL-28 melanoma
[42] = tested on: SK-MEL-5 melanoma
[43] = tested on: SK-OV-3 ovarian
[44] = tested on: SN12C renal
[45] = tested on: SNB-75 CNS
[46] = tested on: SR leukemia
[47] = tested on: SW-620 colon
[48] = tested on: T-47D breast
[49] = tested on: TK-10 renal
[50] = tested on: U251 CNS
[51] = tested on: UACC-257 melanoma
[52] = tested on: UACC-62 melanoma
[53] = tested on: UO-31 renal
[54] = tested on: MCF7 breast
[55] = tested on: MOLT-4 leukemia
[56] = tested on: NCI-H460 lung
[57] = tested on: SF-268 CNS
[58] = tested on: SNB-19 CNS

COc1cccc2c(Nc3ccc(C(=O)NCCN(C)C)cc3)cc(-c3ccccc3)nc12
GI50 [1]: 2.26 µM
TGI [1]: 14.2 µM
GI50 [2]: 17.2 µM
TGI [2]: 32 µM
GI50 [3]: 16 µM
TGI [3]: 33.1 µM
GI50 [4]: 17.6 µM
TGI [4]: 37.9 µM
GI50 [5]: 20.3 µM
TGI [5]: 44.8 µM
GI50 [6]: 27.8 µM
TGI [6]: 55.3 µM
GI50 [7]: 8.86 µM
TGI [7]: 33.2 µM
GI50 [8]: 11.2 µM
TGI [8]: 26.5 µM
GI50 [9]: 16.4 µM
TGI [9]: 33 µM
GI50 [10]: 27 µM
TGI [10]: 81.4 µM
GI50 [11]: 11.5 µM
TGI [11]: 24.9 µM
GI50 [12]: 3.88 µM
TGI [12]: 18.6 µM
GI50 [13]: 16.4 µM
TGI [13]: 38.4 µM
GI50 [14]: 14.9 µM
TGI [14]: 39.9 µM
GI50 [15]: 13.8 µM
TGI [15]: 29.3 µM
GI50 [16]: 0.832 µM
TGI [16]: 8.86 µM
GI50 [17]: 21.4 µM
TGI [17]: 53.6 µM
GI50 [18]: 28.5 µM
TGI [18]: > 100 µM
GI50 [19]: 10.8 µM
TGI [19]: 25.6 µM
GI50 [20]: 10.8 µM
TGI [20]: 31.5 µM
GI50 [21]: 19.7 µM
TGI [21]: 43.2 µM
GI50 [22]: 18.1 µM
TGI [22]: 33.9 µM
GI50 [23]: 16.3 µM
TGI [23]: 30.5 µM
GI50 [24]: 20 µM
TGI [24]: 40.2 µM
GI50 [25]: 4.15 µM
TGI [25]: 19.4 µM
GI50 [26]: 22 µM
TGI [26]: 39.1 µM
GI50 [27]: 19.3 µM
TGI [27]: 40 µM
GI50 [28]: 20.3 µM
TGI [28]: 45.6 µM
GI50 [29]: 16.6 µM
TGI [29]: 32.4 µM
GI50 [30]: 18.3 µM
TGI [30]: 42.9 µM
GI50 [31]: 25.6 µM
TGI [31]: 54.1 µM
GI50 [32]: 33 µM
TGI [32]: > 100 µM
GI50 [33]: 23.7 µM
TGI [33]: 50.6 µM
GI50 [34]: 17.3 µM
TGI [34]: 42.7 µM
GI50 [35]: 13.3 µM
TGI [35]: 40.5 µM
GI50 [36]: 6.11 µM
TGI [36]: 24.4 µM
GI50 [37]: 5.12 µM
TGI [37]: 19.7 µM
GI50 [38]: 22.9 µM
TGI [38]: 41.4 µM
GI50 [39]: 19.1 µM
TGI [39]: 37.1 µM
GI50 [40]: 17.9 µM
TGI [40]: 36.8 µM
GI50 [41]: 37.1 µM
TGI [41]: > 100 µM
GI50 [42]: 17.3 µM
TGI [42]: 32.1 µM
GI50 [43]: 29.4 µM
TGI [43]: 71.2 µM
GI50 [44]: 16.1 µM
TGI [44]: 36.4 µM
GI50 [45]: 29.5 µM
TGI [45]: 66 µM
GI50 [46]: 1.86 µM
TGI [46]: 7.52 µM
GI50 [47]: 14 µM
TGI [47]: 33.4 µM
GI50 [48]: 19.7 µM
TGI [48]: 50.2 µM
GI50 [49]: 23.8 µM
TGI [49]: 57.2 µM
GI50 [50]: 18.8 µM
TGI [50]: 38.3 µM
GI50 [51]: 15.7 µM
TGI [51]: 29.9 µM
GI50 [52]: 18.2 µM
TGI [52]: 32.5 µM
GI50 [53]: 13.9 µM
TGI [53]: 32.3 µM

O=Cc1cc(O)c(O)c(/C=N/n2c3ccccc3c3ccccc32)c1
TGI [1]: 20.7 µM
TGI [2]: 49.8 µM
TGI [3]: > 100 µM
TGI [4]: 21.1 µM
TGI [5]: 12.4 µM
TGI [6]: 36.6 µM
TGI [7]: 9.87 µM
TGI [8]: 26.3 µM
TGI [9]: 49 µM
TGI [10]: 43.5 µM
TGI [11]: 30.9 µM
TGI [12]: 31.2 µM
TGI [13]: 19.4 µM
TGI [14]: 6.32 µM
TGI [15]: 28 µM
TGI [16]: 9.23 µM
TGI [17]: > 100 µM
TGI [18]: 48.1 µM
TGI [20]: 26.7 µM
TGI [21]: 84.3 µM
TGI [22]: > 100 µM
TGI [23]: 23.6 µM
TGI [24]: 30.8 µM
TGI [54]: 4.62 µM
TGI [25]: 30.2 µM
TGI [26]: 28.3 µM
TGI [55]: 12.5 µM
TGI [27]: 33.2 µM
TGI [28]: 34.7 µM
TGI [56]: 36.7 µM
TGI [29]: 7.03 µM
TGI [31]: 10.1 µM
TGI [32]: 13.5 µM
TGI [33]: 49 µM
TGI [34]: 18.7 µM
TGI [35]: 28.7 µM
TGI [36]: 6.49 µM
TGI [37]: 23.5 µM
TGI [57]: 20 µM
TGI [38]: 27.7 µM
TGI [39]: 24.7 µM
TGI [41]: 42.1 µM
TGI [43]: 21.1 µM
TGI [44]: 18.2 µM
TGI [58]: > 100 µM
TGI [45]: 9.76 µM
TGI [46]: 21.4 µM
TGI [47]: 44.7 µM
TGI [48]: 40.4 µM
TGI [49]: 82 µM
TGI [50]: 45.5 µM
TGI [51]: 27.9 µM
TGI [52]: 22.9 µM
TGI [53]: 26.1 µM
